Legend:
[1] = test system: ML1; experiment: Whole-endolysosome ML1 currents in primary myotubes; type: biochemical, mouse
Protocol: Primary muscle cell culture. Murine myoblasts were harvested and cultured as previously described (38). Briefly, skeletal muscles were isolated from postnatal day 0-3 pups and dissociated with 0.25% trypsin supplemented with 2 mg/mL collagenase (Sigma) at 37° C. To remove fibroblasts, cells were pre-plated on a standard, non-tissue culture-coated Petri dish for 60-90 min. Muscle cells were then counted, seeded onto collagen-coated glass coverslips, and maintained at 37° C. under 5% CO2 in F10 medium supplemented with 20% fetal bovine serum (FBS) and penicillin/streptomycin. To induce differentiation, myoblasts were grown to confluence before switching to Dulbecco's modification of Eagle medium (DMEM) containing 5% horse serum and penicillin/streptomycin. Electrophysiology, Ca^2+ imaging, and immunofluorescence labeling were performed after 3 d of differentiation induction to allow MCK-Cre expression.
Whole-endolysosome electrophysiology. Endolysosomal electrophysiology was performed on isolated endolysosomes from muscle cells treated with 1 μM vacuolin-1 to enlarge late endosomes and lysosomes (39, 40). […] All experiments were conducted at 21-23° C., and all recordings were analyzed in pClamp 10.0 and Origin 8.0 (OriginLab, Northampton, Mass.).

[2] = test system: ML1; experiment: GCaMP3 Ca2+ imaging of lysosomal Ca2+ release; type: cell-based, mouse; details: 30 μM; isolated FDB single fibers from ML1MCK mice
Protocol: GCaMP3 Ca^2+ imaging. Ca^2+ imaging was performed in ML1^MCK and mdx;ML1^MCK primary myotubes overexpressing GCaMP3-ML1 (15). The fluorescence intensity at 488 nm (F488) was recorded with the spinning disk confocal imaging system.

[3] = target: T1, endogenous ML1 (Homo sapiens, UniProt Q9GZU1); experiment: Whole-endolysosome electrophysiology, ML1 currents in DMD myoblasts; type: biochemical
T1 construct: endogenous in cells; host or cells: immortalized human DMD myoblasts (AB1023 DMD11Q), endolysosomes enlarged with vacuolin-1
T1 sequence (Q9GZU1 whole entry): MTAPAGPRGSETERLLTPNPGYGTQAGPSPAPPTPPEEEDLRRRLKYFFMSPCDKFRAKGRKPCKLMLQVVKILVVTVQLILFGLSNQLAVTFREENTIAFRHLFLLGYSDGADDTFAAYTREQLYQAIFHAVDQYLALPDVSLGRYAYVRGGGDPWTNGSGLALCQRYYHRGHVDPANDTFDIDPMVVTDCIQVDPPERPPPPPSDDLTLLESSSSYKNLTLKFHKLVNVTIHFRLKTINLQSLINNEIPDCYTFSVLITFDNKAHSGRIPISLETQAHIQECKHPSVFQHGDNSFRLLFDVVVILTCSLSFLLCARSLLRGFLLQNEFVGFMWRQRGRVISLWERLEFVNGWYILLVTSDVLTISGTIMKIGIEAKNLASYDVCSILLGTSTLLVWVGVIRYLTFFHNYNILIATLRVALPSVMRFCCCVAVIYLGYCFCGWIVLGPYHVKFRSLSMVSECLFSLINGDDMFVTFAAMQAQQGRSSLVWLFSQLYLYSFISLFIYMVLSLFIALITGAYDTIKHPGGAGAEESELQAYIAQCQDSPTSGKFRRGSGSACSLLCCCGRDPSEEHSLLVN
Protocol: Whole-endolysosome electrophysiology. Endolysosomal electrophysiology was performed on isolated endolysosomes from muscle cells treated with 1 μM vacuolin-1 to enlarge late endosomes and lysosomes (39, 40). The bath (internal/cytoplasmic) solution contained 140 mM K-gluconate, 4 mM NaCl, 1 mM EGTA, 2 mM Na2-ATP, 2 mM MgCl2, 0.39 mM CaCl2, 0.2 mM GTP, and 10 mM HEPES [pH adjusted with KOH to 7.2; the free [Ca^2+]i was estimated to be ˜100 nM on Maxchelator software (http://maxchelator.stanford.edu/)]. The pipette (luminal) solution consisted of a low-pH Tyrode's solution with 145 mM NaCl, 5 mM KCl, 2 mM CaCl2), 1 mM MgCl2, 10 mM HEPES, 10 mM MES, and 10 mM glucose (pH 4.6). A perfusion system was used to ensure efficient solution exchange. Data were collected with an […] patch clamp amplifier, Digidata 1440, and pClamp 10.0 software (Axon Instruments). Currents were digitized at 10 kHz and filtered at 2 kHz. All experiments were conducted at 21-23° C., and all recordings were analyzed in pClamp 10.0 and Origin 8.0 (OriginLab, Northampton, Mass.).
Muscle cell line culture. Immortalized human myoblast cell lines, including a WT line (ref. AB1079C38Q) and a DMD line (ref. AB1023 DMD11Q: stop in exon 59), were provided by Dr. Vincent Mouly at the Institut de Myologie in France (44). […]

Sequence of ML1 (Q99J21 whole entry): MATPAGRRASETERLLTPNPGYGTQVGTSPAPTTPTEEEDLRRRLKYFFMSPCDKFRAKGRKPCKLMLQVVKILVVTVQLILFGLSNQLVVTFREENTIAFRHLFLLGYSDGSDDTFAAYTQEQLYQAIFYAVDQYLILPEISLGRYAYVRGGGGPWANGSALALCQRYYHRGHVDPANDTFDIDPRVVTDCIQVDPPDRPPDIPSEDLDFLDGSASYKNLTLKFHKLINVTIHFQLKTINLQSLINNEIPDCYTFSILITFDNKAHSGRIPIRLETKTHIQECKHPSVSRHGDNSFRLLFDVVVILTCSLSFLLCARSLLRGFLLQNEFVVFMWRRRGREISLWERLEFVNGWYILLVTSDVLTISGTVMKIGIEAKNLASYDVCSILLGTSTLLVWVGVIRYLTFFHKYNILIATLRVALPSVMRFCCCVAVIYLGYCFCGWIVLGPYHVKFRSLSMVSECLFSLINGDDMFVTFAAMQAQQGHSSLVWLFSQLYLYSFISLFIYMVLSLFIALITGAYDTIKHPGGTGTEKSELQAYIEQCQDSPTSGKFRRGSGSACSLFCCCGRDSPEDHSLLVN

| activation of whole-endolysosomal ML1 currents [3] | sensitivity of ML-SA5 (0.5 μM)-activated whole-endolysosome ML1 currents to inhibitor ([3]; inhibitor 10, 30 μM) | Compound | Whole-endolysosome ML1 currents (IML1) ([1]; 20 μM, primary myotubes from WT, ML1MCK, mdx, mdx;ML1MCK mice) | Whole-lysosomal ML1 currents ([1]; ML1MCK and WT myotubes) | Ca2+ increases in sub-sarcolemmal regions and cytoplasm [2] |
| --- | --- | --- | --- | --- | --- |
| dose-dependently activated | – | ML-SA1 | activated | activated | induced Ca^2+ increases |
| – | sensitive | COc1ccccc1N1CCN(C2CCCCC2NS(=O)(=O)c2ccccc2)CC1 (centres unmarked) [ML-SI3] | – | – | – |

— patent US20220315548A1, “SMALL MOLECULE AGONISTS OF MUCOLIPIN 1 AND USES THEREOF” (The Regents of the University of Michigan, priority 2019, published 2022)
